Where only a bound is given, the exact number is not on record here.

The IC50 is the concentration needed to halve the response being measured.

Assay [1] has as its target T1, Cbl-b (Homo sapiens (Human), UniProt Q13191). The assay can be described thus: Cbl-b displacement assay (Cbl-b inhibition assay), Biological Example 12. Type of assay: binding. Conditions: 0.125 nM Cbl-b final concentration (Low), Table 7; read-out: Cbl-b IC50 (Low). Here is the method:
(§1) Candidate compounds were evaluated for their ability to bind and inhibit Cbl-b, an E3 ubiquitin-protein ligase, as evidenced by their ability to displace a fluorophore-labeled probe bound to Cbl-b.
(§2) The ability of candidate compounds to displace a known inhibitor and thereby inhibit Cbl-b activity was measured by monitoring the interaction of Cbl-b with a fluorophore-labeled probe in the presence of the candidate compound. A truncated variant of Cbl-b (UniProt number Q13191) containing residues 36-427 and an Avitag at its N-terminus was co-expressed with BirA biotin ligase and purified using a standard protocol (see Dou et al., Nature Structural and Molecular Biology 8: 982-987, 2013; Avidity LLC).
Fluorescently-labeled inhibitor probe was synthesized and tagged with BODIPY FL. Cbl-b displacement assays were performed in a 384-well plate at room temperature in a […] by pre-incubating 0.5 nM Cbl-b or 0.125 nM Cbl-b (final concentration, indicated as “High” and “Low,” respectively) in an assay buffer containing 20 mM HEPES pH 7.5, 150 mM NaCl, 0.01% Triton X-100, 0.01% BSA and 0.5 mM TCEP in the presence of a candidate compound in 1% DMSO (final concentration) for one hour. After incubation in the presence of the candidate compound, the plate was incubated for an additional one hour in the presence of an approximate EC40 binding saturation consisting of 150 nM fluorescently-labeled inhibitor probe and 2 nM Streptavidin-Terbium (Cisbio) (final concentrations). Following the one hour incubation, the plates were read for TR-FRET signal at […] using an Envision plate reader (Perkin Elmer).
(§3) The resulting data for the Cbl-b activity assays were analyzed using standard methods to determine the IC50 values for the tested compounds.

In assay [2] the test system is primary human total T-cells. Nature of the assay: T-cell activation, IL-2 secretion, Biological Example 13. Type of assay: cell-based. Conditions: 48 hours, fold change over baseline, Table 8; for IL-2 secretion CD3/CD28 0.3 μM / IL-2 secretion CD3/CD28 1 μM: anti-CD3 and anti-CD28 co-stimulation; for IL-2 secretion CD3/CD28 0.3 μM: 0.3 μM inhibitor; for IL-2 secretion CD3/CD28 1 μM / IL-2 secretion CD3 1 μM: 1 μM inhibitor; for IL-2 secretion CD3 1 μM / IL-2 secretion CD3 3 μM: anti-CD3 stimulation alone; for IL-2 secretion CD3 3 μM: 3 μM inhibitor.

For assay [3], the system named is primary human total T-cells. Nature of the assay: T-cell activation, IL-2 secretion, Biological Example 2. Conditions: 48 hours, fold change over baseline; for fold induction at 0.3 µM: 0.3 μM inhibitor; for fold induction at 1 µM: 1 μM inhibitor; for fold induction at 3 µM: 3 μM inhibitor. Type of assay: cell-based.
The test system of assay [4] is primary human total T-cells. Nature of the assay: T-cell activation, IL-2 secretion, Biological Example 9. Type of assay: cell-based. Conditions: 48 hours, fold change over baseline, Table 5; for IL-2 secretion CD3/CD28 0.3 μM / IL-2 secretion CD3/CD28 1 μM: anti-CD3 and anti-CD28 co-stimulation; for IL-2 secretion CD3/CD28 0.3 μM: 0.3 μM inhibitor; for IL-2 secretion CD3/CD28 1 μM / IL-2 secretion CD3 1 μM: 1 μM inhibitor; for IL-2 secretion CD3 1 μM / IL-2 secretion CD3 3 μM: anti-CD3 stimulation alone; for IL-2 secretion CD3 3 μM: 3 μM inhibitor.

The target in assay [5] is T1, Cbl-b. Nature of the assay: Cbl-b displacement assay (Cbl-b inhibition assay), Biological Example 1. Type of assay: binding. A digest of the protocol: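 Probe displacement read as TR-FRET (520/620 nm) after 1 h with 2 nM streptavidin-terbium and 150 nM BODIPY FL-labelled inhibitor probe, about EC40. Before that, compound in 1% DMSO sat 1 h at room temperature with N-Avitag biotinylated Cbl-b 36–427, 0.5 nM (High) or 0.125 nM (Low), in pH 7.5 HEPES buffer.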

The target of assay [6] is T1, Cbl-b. Nature of the assay: Cbl-b displacement assay (Cbl-b inhibition assay), Biological Example 8. Type of assay: binding. The settings on record: 0.125 nM Cbl-b final concentration (Low), Table 4; read-out: Cbl-b IC50 (Low). As for the experimental part:
as §1, §2
Fluorescently-labeled inhibitor probe was synthesized and tagged with BODIPY FL. Cbl-b displacement assays were performed in a 384-well plate at room temperature in a […] by pre-incubating 0.5 nM Cbl-b or 0.125 nM Cbl-b (final concentration, indicated as “High” and “Low,” respectively) in an assay buffer containing 20 mM HEPES pH 7.5, 150 mM NaCl, 0.01% Triton X-100, 0.01% BSA, and 0.5 mM TCEP in the presence of a candidate compound in 1% DMSO (final concentration) for 1 hour. After incubation in the presence of the candidate compound, the plate was incubated for an additional one hour in the presence of an approximate EC40 binding saturation consisting of 150 nM fluorescently-labeled inhibitor probe and 2 nM Streptavidin-Terbium (Cisbio) (final concentrations). Following the one hour incubation, the plates were read for TR-FRET signal at […] using an Envision plate reader (Perkin Elmer).
as §3

Assay [7] deals with primary human total T-cells. The assay can be described thus: T-cell activation, CD25 surface staining, Biological Example 2. Type of assay: cell-based. Conditions: 48 hours, fold change over baseline; for fold induction at 0.3 µM: 0.3 μM inhibitor; for fold induction at 1 µM: 1 μM inhibitor; for fold induction at 3 µM: 3 μM inhibitor.
Setting [8] is: anti-CD3 and anti-CD28 co-stimulation.
The mark [9] stands for this setting: anti-CD3 and anti-CD28 co-stimulation, read-out: IL-2 secretion CD3/CD28 1 μM.
[10] abbreviates: anti-CD3 stimulation alone, read-out: IL-2 secretion CD3 1 μM.
Where [11] appears, read: 0.125 nM Cbl-b final concentration (Low), read-out: Cbl-b activity IC50 (Low).
The mark [12] stands for this setting: anti-CD3 and anti-CD28 co-stimulation, read-out: CD25 staining CD3/CD28 1 μM.
[13] abbreviates: anti-CD3 stimulation alone, read-out: CD25 staining CD3 1 μM.
Setting [14] is: read-out: IC50 values in the Cbl-b inhibition assay of Biological Example 1.

T1 sequence (Q13191 36-427): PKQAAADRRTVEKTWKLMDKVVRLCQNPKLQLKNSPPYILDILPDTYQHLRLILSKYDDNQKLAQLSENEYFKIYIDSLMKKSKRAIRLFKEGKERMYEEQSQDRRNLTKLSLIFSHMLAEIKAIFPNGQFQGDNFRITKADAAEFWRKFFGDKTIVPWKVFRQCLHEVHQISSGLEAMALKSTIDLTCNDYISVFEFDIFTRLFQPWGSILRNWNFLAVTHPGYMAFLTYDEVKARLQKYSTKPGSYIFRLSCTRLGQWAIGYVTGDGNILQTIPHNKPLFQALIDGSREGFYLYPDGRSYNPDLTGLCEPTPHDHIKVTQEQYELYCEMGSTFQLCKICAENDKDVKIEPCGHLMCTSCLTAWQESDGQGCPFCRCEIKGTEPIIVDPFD

Consider `Cn1cnnc1C[C@]1(c2cccc(N3Cc4c(cc(CN[C@H]5CCC(F)(F)C5)cc4C(F)(F)F)C3=O)c2)C[C@H](C#N)C1` [Compound 20, (1R3r)-3-(3-(6-((((S)-3,3-difluorocyclopentyl)amino)methyl)-1-oxo-4-(trifluoromethyl)isoindolin-2-yl)phenyl)-3-((4-methyl-4H-1,2,4-triazol-3-yl)methyl)cyclobutane-1-carbonitrile], for which the IC50 in assay [1], in assay [5] (setting [11]) and in assay [6] was less than 1 nM each time. In addition, the “IL-2 secretion CD3/CD28 0.3 μM” value in assay [2] and in assay [4] was “A (A indicates >15 fold)” throughout. The “IL-2 secretion CD3/CD28 1 μM” value in assay [2] and in assay [4] was “A (A indicates >15 fold)” in each case. For the same molecule, the “IL-2 secretion CD3 1 μM” value in assay [2] and in assay [4] was “A (A indicates >0.66 fold)” throughout. The “IL-2 secretion CD3 3 μM” value in assay [2] and in assay [4] was “A (A indicates >0.66 fold)” each time. The fold induction at 0.3 µM was more than 20 in assay [3] (setting [8]) and more than 1.39 in assay [7] (setting [8]). Besides, the fold induction at 1 µM in assay [3] (setting [9]) is more than 20; in assay [3] (setting [10]), more than 0.85; in assay [7] (setting [12]), more than 1.39; in assay [7] (setting [13]), more than 1.15. In addition, the values for the fold induction at 3 µM in assay [3] (anti-CD3 stimulation alone) and in assay [7] (anti-CD3 stimulation alone) were more than 0.85 and more than 1.15, respectively.

Take `C[C@@H]1CN(Cc2cc3c(c(C(F)(F)F)c2)CN(c2cccc([C@]4(Cc5nncn5C)C[C@@H](C#N)C4)c2)C3=O)CCC1(F)F` [Compound 11, (1R,3r)-3-(3-(6-(((R)-4,4-difluoro-3-methylpiperidin-1-yl)methyl)-1-oxo-4-(trifluoromethyl)isoindolin-2-yl)phenyl)-3-((4-methyl-4H-1,2,4-triazol-3-yl)methyl)cyclobutane-1-carbonitrile]: the IC50 was in the range of 1 to 5 nM in assay [1], 1 to 2 nM in assay [5] (setting [11]), 1 to 2 nM in assay [5] (setting [14]) and 1 to 5 nM in assay [6]. For the same molecule, the “IL-2 secretion CD3/CD28 0.3 μM” value in assay [2] and in assay [4] was “A (A indicates >15 fold)” throughout. Further, the “IL-2 secretion CD3/CD28 1 μM” value in assay [2] and in assay [4] was “A (A indicates >15 fold)” each time. The “IL-2 secretion CD3 1 μM” value in assay [2] and in assay [4] was “A (A indicates >0.66 fold)” each time. Further, the “IL-2 secretion CD3 3 μM” value in assay [2] and in assay [4] was “A (A indicates >0.66 fold)” each time. In addition, the results for the fold induction at 0.3 µM in assay [3] (setting [8]) and in assay [7] (setting [8]) were more than 20 and 1.24 to 1.39, respectively. The fold induction at 1 µM in assay [3] (setting [9]) is more than 20; in assay [3] (setting [10]) it was more than 0.85; in assay [7] (setting [12]), 1.24 to 1.39; in assay [7] (setting [13]), 1 to 1.15. For the same molecule, the fold induction at 3 µM in assay [3] (anti-CD3 stimulation alone) was more than 0.85; in assay [7] (anti-CD3 stimulation alone), not above 1.

Take `Cn1cnnc1C[C@]1(c2cccc(N3Cc4c(cc(CNC5COC(C)(C)C5)cc4C(F)(F)F)C3=O)c2)C[C@H](C#N)C1` (stereo partly shown) [Compound 24, (1r,3r)-3-(3-(6-(((5,5-dimethyltetrahydrofuran-3-yl)amino)methyl)-1-oxo-4-(trifluoromethyl)isoindolin-2-yl)phenyl)-3-((4-methyl-4H-1,2,4-triazol-3-yl)methyl)cyclobutane-1-carbonitrile]: the fold induction at 0.3 µM is not above 15 in assay [3] (setting [8]) and 1.24 to 1.39 in assay [7] (setting [8]). Moreover, the fold induction at 1 µM in assay [3] (setting [9]) was 15 to 20; in assay [3] (setting [10]), 0.4 to 0.85; in assay [7] (setting [12]) it was 1.24 to 1.39; in assay [7] (setting [13]) it was more than 1.15. The fold induction at 3 µM in assay [3] (anti-CD3 stimulation alone) was 0.4 to 0.85; in assay [7] (anti-CD3 stimulation alone), 1 to 1.15. Further, the IC50 in assay [5] (setting [11]) and in assay [5] (setting [14]) was 2 to 5 nM each time.

Regarding `Cn1cnnc1C[C@]1(c2cccc(N3Cc4c(cc(CN5CCCCC(C)(F)C5)cc4C(F)(F)F)C3=O)c2)C[C@H](C#N)C1` (stereo partly shown) [Compound 26, (1r,3r)-3-(3-(6-((3-fluoro-3-methylazepan-1-yl)methyl)-1-oxo-4-(trifluoromethyl)isoindolin-2-yl)phenyl)-3-((4-methyl-4H-1,2,4-triazol-3-yl)methyl)cyclobutane-1-carbonitrile], the fold induction at 0.3 µM in assay [3] (setting [8]) was not above 15; in assay [7] (setting [8]), not above 1.24. The fold induction at 1 µM was not above 15 in assay [3] (setting [9]), less than 0.4 in assay [3] (setting [10]), not above 1.24 in assay [7] (setting [12]) and not above 1 in assay [7] (setting [13]). Besides, the fold induction at 3 µM in assay [3] (anti-CD3 stimulation alone) was less than 0.4; in assay [7] (anti-CD3 stimulation alone), not above 1. The IC50 in assay [5] (setting [11]) lay within 2 to 5 nM.

In the case of `CC1CCCN(Cc2cc3c(c(C(F)(F)F)c2)CN(c2cccc([C@]4(Cc5nncn5C)C[C@@H](C#N)C4)c2)C3=O)CC1` (stereo partly shown) [Compound 13, (1r,3r)-3-((4-methyl-4H-1,2,4-triazol-3-yl)methyl)-3-(3-(6-((4-methylazepan-1-yl)methyl)-1-oxo-4-(trifluoromethyl)isoindolin-2-yl)phenyl)cyclobutane-1-carbonitrile], the fold induction at 0.3 µM in assay [3] (setting [8]) was 15 to 20; in assay [7] (setting [8]), 1.24 to 1.39. Besides, the fold induction at 1 µM was 15 to 20 in assay [3] (setting [9]), 0.4 to 0.85 in assay [3] (setting [10]), 1.24 to 1.39 in assay [7] (setting [12]) and more than 1.15 in assay [7] (setting [13]). Also, the fold induction at 3 µM in assay [3] (anti-CD3 stimulation alone) was in the range of 0.4 to 0.85; in assay [7] (anti-CD3 stimulation alone), 1 to 1.15. In addition, in assay [5] (setting [11]), the half-inhibitory concentration (IC50) fell in the range of 2 to 5 nM.
